In ChEMBL document CHEMBL1130482, “Synthesis and activity of C2-substituted analogs of influenza neuraminidase inhibitor GS 4071” (Bioorg Med Chem Lett, 1997):

Assay: Concentration required for the inhibition of influenza neuraminidase activity by 50%
Design: species or system unidentified influenza virus

SMILES: CCC(CC)O[C@@H]1C(C)=C(C(=O)O)C[C@H](N)[C@H]1NC(C)=O
- IC50: 2300 nM

SMILES: CCC(CC)O[C@@H]1C(SC)=C(C(=O)O)C[C@H](N)[C@H]1NC(C)=O
- IC50: 3400 nM

SMILES: CCC(CC)O[C@@H]1C=C(C(=O)O)C[C@H](N)[C@H]1NC(C)=O [OSELTAMIVIR CARBOXYLATE]
- IC50: 1.4 nM

SMILES: CCC(CC)O[C@@H]1C(Cl)=C(C(=O)O)C[C@H](N)[C@H]1NC(C)=O
- IC50: 3100 nM
